Test results from ChEMBL document CHEMBL1156311, “Discovery of sulfonamide-pyrazole gamma-secretase inhibitors” (Bioorg Med Chem Lett, 2010).
pIC50: −log10 of the molar value.

Assay: Drug level in FVB mouse plasma at 100 mg/kg, po after 3 hrs
Assay type: ADME, organism-based
Set-up: dose 100 mg/kg, route oral
Settings: not given

Row | Structure (SMILES) | concentration at 3 h
1 | O=S(=O)(c1ccc(Cl)cc1)N1C2CCCC1c1cn[nH]c1C2 (single isomer, unassigned; (+)) | 194 nM

Assay: Drug level in FVB mouse cerebral cortex at 100 mg/kg, po after 3 hrs
Assay type: ADME, organism-based
Set-up: dose 100 mg/kg, route oral
Settings: read-out: Drug uptake

Row | Structure (SMILES) | concentration at 3 h
2 | O=S(=O)(c1ccc(Cl)cc1)N1C2CCCC1c1cn[nH]c1C2 (single isomer, unassigned; (+)) | 86 nM

Assay: Inhibition of gamma-secretase
Settings: not given

Row | pIC50 | Structure (SMILES)
3 | 7.15 | CC(=O)Nc1n[nH]c2c1C1CCCC(C2)N1S(=O)(=O)c1ccc(Cl)cc1 (stereo not drawn)
4 | 7.60 | O=C1NCCCC[C@H]1N(Cc1ccc(Br)cc1)S(=O)(=O)c1ccc(Cl)cc1
5 | 5.77 | CN1CCCC[C@@H](N(Cc2ccc(Br)cc2)S(=O)(=O)c2ccc(Cl)cc2)C1=O
6 | 5.05 | COc1ncc2c(n1)CC1CCCC2N1S(=O)(=O)c1ccc(Cl)cc1 (stereo not drawn)
7 | 6.19 | COc1cc(CN([C@@H]2CCCCNC2=O)S(=O)(=O)c2ccc(Cl)cc2)ccc1OCCc1scnc1C
8 | < 5.00 | O=S(=O)(c1ccc(Cl)cc1)N1C2CCCC1c1cnc(O)nc1C2 (stereo not drawn)
9 | 8.52 | O=S(=O)(c1ccc(Cl)cc1)N1C2CCCC1C(F)(F)c1[nH]ncc12 (stereo not drawn)
10 | < 5.00 | Cn1cc2c(n1)CC1CCCC2N1S(=O)(=O)c1ccc(Cl)cc1 (stereo not drawn)
11 | < 5.00 | Nc1nc2c(s1)C1CCCC(C2)N1S(=O)(=O)c1ccc(Cl)cc1 (stereo not drawn)
12 | < 5.00 | CN(C)c1n[nH]c2c1C1CCCC(C2)N1S(=O)(=O)c1ccc(Cl)cc1 (stereo not drawn)
13 | < 5.00 | CSc1ncc2c(n1)CC1CCCC2N1S(=O)(=O)c1ccc(Cl)cc1 (stereo not drawn)
14 | < 5.00 | N[C@H]1C[C@H]2CCC[C@@H](C1)N2S(=O)(=O)c1ccc(Cl)cc1
15 | 5.77 | C[C@@H]1CCC[C@H](C)N1S(=O)(=O)c1ccc(Cl)cc1
16 | < 5.00 | CNC1CC2CCCC(C1)N2S(=O)(=O)c1ccc(Cl)cc1 (racemic)
17 | < 5.00 | CC(=O)NC1CC2CCCC(C1)N2S(=O)(=O)c1ccc(Cl)cc1 (racemic)
18 | 5.10 | Cc1ccc(S(=O)(=O)C(=O)NC2CC3CCCC(C2)N3S(=O)(=O)c2ccc(Cl)cc2)cc1 (racemic)

The next lines start with the compound.

Row | Structure (SMILES) | pIC50
19 | Nc1ncc2c(n1)CC1CCCC2N1S(=O)(=O)c1ccc(Cl)cc1 (stereo not drawn) | 5.26
20 | Cc1n[nH]c2c1C1CCCC(C2)N1S(=O)(=O)c1ccc(Cl)cc1 (stereo not drawn) | 7.19
21 | O=S(=O)(c1ccc(Cl)cc1)N1C2CCCC1c1c(C(F)(F)F)n[nH]c1C2 (stereo not drawn) | 7.15
22 | Cn1ncc2c1CC1CCCC2N1S(=O)(=O)c1ccc(Cl)cc1 (stereo not drawn) | < 5.00
23 | O=S(=O)(c1ccc(Cl)cc1)N1C2CCCC1CCC2 | 5.89
24 | O=S(=O)(c1ccc(Cl)cc1)N1C2CCCC1c1c(C(F)F)n[nH]c1C2 (stereo not drawn) | 7.07
25 | O=C1c2[nH]ncc2C2CCCC1N2S(=O)(=O)c1ccc(Cl)cc1 (stereo not drawn) | 8.10
26 | O=S(=O)(c1ccc(Cl)cc1)N1C2CCCC1c1cnoc1C2 (stereo not drawn) | 5.46
27 | CSc1n[nH]c2c1C1CCCC(C2)N1S(=O)(=O)c1ccc(Cl)cc1 (stereo not drawn) | 6.41
28 | Nc1n[nH]c2c1C1CCCC(C2)N1S(=O)(=O)c1ccc(Cl)cc1 (stereo not drawn) | 6.98
29 | O=S(=O)(c1ccc(Cl)cc1)N1C2CCCC1c1cncnc1C2 (stereo not drawn) | 5.33
30 | O=S(=O)(c1ccc(Cl)cc1)N1C2CCCC1c1cn[nH]c1C2 (stereo not drawn) | 8.40
31 | O=S(=O)(c1ccc(Cl)cc1)N1C2CCCC1CC(=NO)C2 (racemic) | 5.48
32 | O=S(=O)(c1ccc(Cl)cc1)N1[C@@H]2CCC[C@H]1C[C@@H](O)C2 (stereo in doubt; 8a) | 5.52
33 | O=S(=O)(c1ccc(Cl)cc1)N1[C@@H]2CCC[C@H]1C[C@@H](O)C2 (stereo in doubt; 8b) | 6.22
